Assay results reported in patent US8124605B2, “Compositions and methods for modulating a kinase cascade” (Kinex Pharmaceuticals, LLC, priority 2007, dated 2012).

What was measured:
Format in all cases: cell-based
JAK1 = target: T1, JAK1 (Homo sapiens, UniProt P23458); test: JAK phosphorylation/activation by flow cytometry, pSTAT6 staining in IL-4 stimulated U-937 cells; conditions: drug 30 min, then IL-4
T1 construct: U-937 cells, histiocytic lymphoma cell line; endogenous in cells; host or cells: U-937 (ATCC CRL-1593.2)
T1 sequence (P23458 whole entry): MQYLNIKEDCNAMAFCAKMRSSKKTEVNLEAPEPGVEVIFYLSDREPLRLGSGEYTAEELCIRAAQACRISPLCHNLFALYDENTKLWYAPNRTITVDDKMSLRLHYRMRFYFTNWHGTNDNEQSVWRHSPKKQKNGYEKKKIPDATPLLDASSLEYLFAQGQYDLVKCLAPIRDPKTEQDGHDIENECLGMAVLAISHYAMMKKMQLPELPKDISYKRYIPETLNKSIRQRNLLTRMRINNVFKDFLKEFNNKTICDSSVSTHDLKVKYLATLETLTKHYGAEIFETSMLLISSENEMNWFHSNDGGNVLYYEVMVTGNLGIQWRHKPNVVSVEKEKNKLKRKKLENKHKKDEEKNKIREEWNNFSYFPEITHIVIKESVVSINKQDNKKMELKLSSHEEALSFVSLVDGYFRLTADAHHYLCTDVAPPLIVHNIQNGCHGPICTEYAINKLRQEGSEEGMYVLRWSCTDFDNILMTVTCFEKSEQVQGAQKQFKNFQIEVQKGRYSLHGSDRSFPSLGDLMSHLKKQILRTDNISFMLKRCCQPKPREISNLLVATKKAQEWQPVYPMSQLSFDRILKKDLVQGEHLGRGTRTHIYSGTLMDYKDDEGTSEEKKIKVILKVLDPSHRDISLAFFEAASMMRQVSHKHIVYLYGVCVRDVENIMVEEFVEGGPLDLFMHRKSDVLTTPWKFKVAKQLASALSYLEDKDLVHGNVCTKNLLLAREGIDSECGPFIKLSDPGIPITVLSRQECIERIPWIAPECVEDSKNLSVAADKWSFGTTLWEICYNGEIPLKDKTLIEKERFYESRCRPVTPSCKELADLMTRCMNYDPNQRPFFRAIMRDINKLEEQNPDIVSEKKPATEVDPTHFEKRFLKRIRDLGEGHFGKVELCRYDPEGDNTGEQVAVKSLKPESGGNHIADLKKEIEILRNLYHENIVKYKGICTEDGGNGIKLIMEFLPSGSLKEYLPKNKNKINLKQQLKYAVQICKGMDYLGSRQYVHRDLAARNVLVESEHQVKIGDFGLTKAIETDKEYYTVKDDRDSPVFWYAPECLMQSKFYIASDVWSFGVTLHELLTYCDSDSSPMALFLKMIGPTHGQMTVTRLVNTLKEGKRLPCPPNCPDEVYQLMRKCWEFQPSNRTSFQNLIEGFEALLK
Protocol: (§1) The protocol used to analyze the effect of compounds of the invention on JAK phosphorylation/activation is adapted from: Krutzik and Nolan, Cytometry Part A 55A:61-70 (2003).
(§2) Briefly, U-937 cells, histiocytic lymphoma cell line; ATCC No. CRL-1593.2, were treated with compounds of the invention or commercial JAK inhibitors. Cells were then stimulated with IL-4, to engage the JAK/STAT signaling pathway. Cells were fixed with formaldehyde to “freeze” the phosphorylation states of intracellular proteins. Cells were next permeabilized, and stained with mAbs directed against the phosphorylated STAT (pSTAT) proteins. The positive shift in fluorescence due to pSTAT staining serves as a surrogate to JAK phosphorylation/activation: no flow cytometric mAbs specific to JAKs exist, so the proximal downstream signaling event, STAT phosphorylation, is measured. A decrease in fluorescence, due to drug incubation prior to IL-4 stimulation, is an indirect indication of JAK inhibition. The following antibodies were used: apSTAT5-PE: monoclonal antibody to the intracellular STAT5a protein phosphorylated at Tyrosine 694; conjugated to the fluorochrome phycoerythrin (PE); BD No. 612567 and apSTAT6-Alex647: monoclonal antibody to the intracellular STAT6 protein phosphorylated at Tyrosine 641; conjugated to the fluorochrome Alexa Fluor 647; BD No. 612601. The detailed protocol is described below:
(§3) Resuspend U-937 cells @ 8×10^5 cells/mL in complete culture medium (RPMI-1640/10% FBS).
(§4) Add 0.5 mL cell suspension to each well of 24-well tissue culture plate.
(§5) Add drug treatment (compounds, controls) for 30 min @ 37° C., 5% CO2.
(§6) Add cytokine/growth factor to stimulate; 15-30 min @ 37° C. (1 μL/0.5 mL cell suspension; IL-4, IL-2, IL-15=20 ng/mL)
(§7) Transfer cells to 5 mL Flow tubes.
(§8) Add 16% Formaldehyde directly to cell culture to obtain final concentration of 1.5% formaldehyde. (47 μL formaldehyde+0.5 mL cell culture)
(§9) Incubate cells in fixative for 15 min @ 37° C., 5% CO2.
(§10) Add 3 mL cold “Staining Media” (PBS/1% BSA) to each tube; centrifuge cells @ 1100 RPM, 3 min. Discard supernatant.
(§11) Resuspend cells with vigorous vortexing in 200 μL ice-cold Methanol.
(§12) Incubate cells on ice, 30 min.
(§13) Wash cells twice in 2 mL “Staining Medium” (centrifuge cells @ 1100 RPM, 3 min). Discard supernatant.
(§14) Add 8 μL of fluorophore-conjugated, phosphoprotein-specific mAbs to cells. Incubate cells at RT, 60 min, in the dark.
(§15) Wash cells with 4 mL Staining Media. Centrifuge cells @ 1100 RPM, 3 min. Discard supernatant.
(§16) Resuspend cells in 350 μL Staining Media.
(§17) Acquire cellular events on BD FACSCalibur cytometer.

[1] = system: human colon tumor cell line HT-29; test: Cell proliferation assay (MTT assay), GI50; conditions: HT-29, 72 h, 3 days incubation, read-out: GI50 HT29
Protocol: (§18) The GI50s for several of the compounds of the invention are assayed as described herein.
(§19) Cell line and culture media—the human colon tumor cell line HT-29 was obtained from Dr. Irwin Gelman (Roswell Park Cancer Institute, Buffalo, N.Y.) and maintained in McCoy's 5A medium supplemented with 2% fetal bovine serum and penicillin-streptomycin. SYF/c-Src527F cell line was also obtained from Dr. Irwin Gelman and maintained in Dulbecco's modified Eagle's medium (DMEM) supplemented with 2% bovine serum and penicillin-streptomycin. Both cell lines were incubated in an atmosphere containing 5% CO2 at 37° C.
(§20) Cell proliferation assay (MTT assay)-HT-29 (7,000 cells) and SYF/c-Src527F (4,000 cells) cells were plated in 120 μl of culture medium per well of 96-well plate. Cells were incubated overnight before drug treatment. Test compounds were diluted in culture medium in a separate 96-well plate to yield 10× concentrations of test dose (50 nM, 500 nM, 5 μM, 50 μM, and 500 μM). 13.3 μl of the 10× compound was added to each well of cells to achieve the final test concentrations (5 nM, 50 nM, 500 nM, 5 μM and 50 μM). After 3 days incubation, 10 μl of MTT (Thiazolyl Blue Tetrazolium Bromide, 5 mg/ml in PBS) was added to each well and incubate for 3 hours at 37° C. After removal of culture medium, 100 μl of isopropanol containing 40 mM HCl was added to each well and incubate for 10 minutes on a shaker to dissolve the MTT formazan. Optical density (OD) at 570 nm was then measured using microplate reader and cell growth inhibition (percentage of growth) by each concentration of drug was calculated as: % growth=100×[(T−T0)/(C−T0)] (T: OD of the test well exposure to test drug; C: OD of the control well without drug treatment; T0: OD at time zero). Growth inhibition curves and GI50 were determined using GraphPad Prism 5 statistical software.

SYF/c-Src527F cell line = test: Cell proliferation assay (MTT assay), GI50; conditions: Mus musculus, 72 h, 3 days incubation
Protocol: as §18, §19, §20

JAK3 = target: T2, JAK3 (Homo sapiens, UniProt P52333); test: JAK phosphorylation/activation by flow cytometry, pSTAT5 staining in IL-4 stimulated U-937 cells; conditions: drug 30 min, then IL-4
T2 construct: U-937 cells, histiocytic lymphoma cell line; endogenous in cells; host or cells: U-937 (ATCC CRL-1593.2)
T2 sequence (P52333 1-1124): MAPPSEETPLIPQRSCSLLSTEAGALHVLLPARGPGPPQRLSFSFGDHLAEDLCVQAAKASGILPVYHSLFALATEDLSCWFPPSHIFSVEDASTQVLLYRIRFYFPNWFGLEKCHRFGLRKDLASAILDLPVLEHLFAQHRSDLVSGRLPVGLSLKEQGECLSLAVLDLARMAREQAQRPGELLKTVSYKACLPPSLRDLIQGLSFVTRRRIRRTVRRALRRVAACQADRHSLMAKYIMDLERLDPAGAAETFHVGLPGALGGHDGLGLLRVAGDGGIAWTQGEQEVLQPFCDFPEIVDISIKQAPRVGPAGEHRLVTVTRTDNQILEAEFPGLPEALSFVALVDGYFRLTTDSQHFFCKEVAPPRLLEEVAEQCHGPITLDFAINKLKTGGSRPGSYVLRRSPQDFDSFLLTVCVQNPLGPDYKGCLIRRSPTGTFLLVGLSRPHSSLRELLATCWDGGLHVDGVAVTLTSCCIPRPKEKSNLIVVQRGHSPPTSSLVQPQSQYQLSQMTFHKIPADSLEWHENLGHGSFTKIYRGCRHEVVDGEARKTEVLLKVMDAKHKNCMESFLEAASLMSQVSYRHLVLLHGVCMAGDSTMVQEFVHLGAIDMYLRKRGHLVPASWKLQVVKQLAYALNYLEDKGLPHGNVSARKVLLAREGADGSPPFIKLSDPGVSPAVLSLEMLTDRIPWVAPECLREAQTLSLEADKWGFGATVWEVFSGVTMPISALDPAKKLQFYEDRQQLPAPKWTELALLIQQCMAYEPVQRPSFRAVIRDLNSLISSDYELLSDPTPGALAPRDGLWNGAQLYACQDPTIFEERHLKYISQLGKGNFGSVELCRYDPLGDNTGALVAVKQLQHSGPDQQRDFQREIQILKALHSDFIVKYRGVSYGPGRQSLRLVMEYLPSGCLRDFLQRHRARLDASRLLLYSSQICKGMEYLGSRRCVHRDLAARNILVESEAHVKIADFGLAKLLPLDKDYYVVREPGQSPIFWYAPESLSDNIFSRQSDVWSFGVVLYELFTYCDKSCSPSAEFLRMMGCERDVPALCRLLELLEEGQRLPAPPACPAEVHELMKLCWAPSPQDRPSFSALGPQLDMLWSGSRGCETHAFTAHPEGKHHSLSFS
Protocol: as §1, §2, §3, §4, §5, §6, §7, §8, §9, §10, §11, §12, §13, §14, §15, §16, §17

O=C(Cc1ccccc1)NCc1ccc(-c2ccccc2)cc1 [Compound 125]
JAK1 pStat6-Alexa647 Signal (JAK1): 29.48
JAK1 pStat6-Alexa647 Signal/Background (JAK1): 7.05
GI50 [1]: 0.46 µM
GI50 (SYF/c-Src527F cell line): 750 nM
JAK3 pStat5-PE Signal (JAK3): 4.58
JAK3 pStat5-PE Signal/Background (JAK3): 1.56

O=C(NCCc1ccc(-c2ccccc2)cc1)c1ccccc1 [Compound 126]
JAK1 pStat6-Alexa647 Signal (JAK1): 30.85
JAK1 pStat6-Alexa647 Signal/Background (JAK1): 7.38
GI50 [1]: 2.8 µM
GI50 (SYF/c-Src527F cell line): 3100 nM
JAK3 pStat5-PE Signal (JAK3): 5.34
JAK3 pStat5-PE Signal/Background (JAK3): 1.82

c1ccc(CNCCc2ccc(-c3ccccc3)cc2)cc1 [Compound 127]
JAK1 pStat6-Alexa647 Signal (JAK1): 18.81
JAK1 pStat6-Alexa647 Signal/Background (JAK1): 4.50
GI50 [1]: 3.3 µM
GI50 (SYF/c-Src527F cell line): 1400 nM
JAK3 pStat5-PE Signal (JAK3): 3.38
JAK3 pStat5-PE Signal/Background (JAK3): 1.15

O=C(NCc1ccccc1)Nc1ccc(-c2ccccc2)cn1 [Compound 129]
JAK1 pStat6-Alexa647 Signal (JAK1): 23.06
JAK1 pStat6-Alexa647 Signal/Background (JAK1): 5.51
GI50 [1]: 5.4 µM
GI50 (SYF/c-Src527F cell line): 24700 nM
JAK3 pStat5-PE Signal (JAK3): 4.15
JAK3 pStat5-PE Signal/Background (JAK3): 1.42

O=C(NCc1ccccc1)Oc1ccc(-c2ccccc2)cc1 [Compound 130]
JAK1 pStat6-Alexa647 Signal (JAK1): 31.77
JAK1 pStat6-Alexa647 Signal/Background (JAK1): 7.60
GI50 [1]: 27.1 µM
GI50 (SYF/c-Src527F cell line): 7600 nM
JAK3 pStat5-PE Signal (JAK3): 5.21
JAK3 pStat5-PE Signal/Background (JAK3): 1.78

O=S(=O)(Cc1ccc(Br)cc1)NCc1ccc(-c2ccccc2)cc1 [Compound 134]
JAK1 pStat6-Alexa647 Signal (JAK1): 21.47
JAK1 pStat6-Alexa647 Signal/Background (JAK1): 5.14
GI50 [1]: 5.6 µM
GI50 (SYF/c-Src527F cell line): 4900 nM
JAK3 pStat5-PE Signal (JAK3): 3.66
JAK3 pStat5-PE Signal/Background (JAK3): 1.25

c1ccc(CCSCc2ccc(-c3ccccc3)cc2)cc1 [Compound 135]
JAK1 pStat6-Alexa647 Signal (JAK1): 17.15
JAK1 pStat6-Alexa647 Signal/Background (JAK1): 4.10
GI50 [1]: 9.7 µM
GI50 (SYF/c-Src527F cell line): 18600 nM
JAK3 pStat5-PE Signal (JAK3): 3.48
JAK3 pStat5-PE Signal/Background (JAK3): 1.19

[O-][S+](CCc1ccccc1)Cc1ccc(-c2ccccc2)cc1 (centres unmarked) [Compound 137]
JAK1 pStat6-Alexa647 Signal (JAK1): 22.03
JAK1 pStat6-Alexa647 Signal/Background (JAK1): 5.27
GI50 [1]: 1.8 µM
GI50 (SYF/c-Src527F cell line): 970 nM
JAK3 pStat5-PE Signal (JAK3): 3.71
JAK3 pStat5-PE Signal/Background (JAK3): 1.27

O=S(=O)(Cc1ccc(-c2ccccc2)cc1)NCc1ccccc1 [Compound 138]
JAK1 pStat6-Alexa647 Signal (JAK1): 28.65
JAK1 pStat6-Alexa647 Signal/Background (JAK1): 6.85
GI50 [1]: 13.9 µM
GI50 (SYF/c-Src527F cell line): 1400 nM
JAK3 pStat5-PE Signal (JAK3): 4.10
JAK3 pStat5-PE Signal/Background (JAK3): 1.40

O=S(=O)(CCc1ccccc1)Cc1ccc(-c2ccccc2)cc1 [Compound 139]
JAK1 pStat6-Alexa647 Signal (JAK1): 25.08
JAK1 pStat6-Alexa647 Signal/Background (JAK1): 6.00
GI50 [1]: 2.9 µM
GI50 (SYF/c-Src527F cell line): 2200 nM
JAK3 pStat5-PE Signal (JAK3): 4.41
JAK3 pStat5-PE Signal/Background (JAK3): 1.51

O=C(Cc1ccc(-c2ccccc2)cc1)NCc1cccc(F)c1 [Control A]
JAK1 pStat6-Alexa647 Signal (JAK1): 23.79
JAK1 pStat6-Alexa647 Signal/Background (JAK1): 5.69
JAK3 pStat5-PE Signal (JAK3): 4.12
JAK3 pStat5-PE Signal/Background (JAK3): 1.41

O=C(Cc1ccc(-c2ccc(OCCN3CCOCC3)cc2)cn1)NCc1ccccc1 [Control B]
JAK1 pStat6-Alexa647 Signal (JAK1): 19.03
JAK1 pStat6-Alexa647 Signal/Background (JAK1): 4.55
JAK3 pStat5-PE Signal (JAK3): 3.42
JAK3 pStat5-PE Signal/Background (JAK3): 1.17

COc1cc2ncnc(Nc3ccc(O)cc3)c2cc1OC [WHI-P131]
JAK1 pStat6-Alexa647 Signal (JAK1): 33.80
JAK1 pStat6-Alexa647 Signal/Background (JAK1): 8.09
JAK3 pStat5-PE Signal (JAK3): 3.19
JAK3 pStat5-PE Signal/Background (JAK3): 1.09

COc1cc2ncnc(Nc3ccc(O)c(Br)c3)c2cc1OC [WHI-P154]
JAK1 pStat6-Alexa647 Signal (JAK1): 14.54
JAK1 pStat6-Alexa647 Signal/Background (JAK1): 3.48
JAK3 pStat5-PE Signal (JAK3): 1.63
JAK3 pStat5-PE Signal/Background (JAK3): 0.56

O=C(Cc1ccc(-c2ccccc2)cc1)NCc1cccc(F)c1 [drawing 586]
GI50 [1]: 0.27 µM
GI50 (SYF/c-Src527F cell line): 460 nM

O=C(Cc1ccc(-c2ccc(OCCN3CCOCC3)cc2)cn1)NCc1ccccc1 [drawing 587]
GI50 [1]: 0.026 µM
GI50 (SYF/c-Src527F cell line): 23 nM
